Experimental data taken from ChEMBL document CHEMBL1201862, “PubChem BioAssay data set” (2004).
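Values below derive from 48-hour exposures of cells grown in 96-well plates, with endpoints linearly interpolated between the two concentrations bracketing the appropriate inhibition level. Abbreviation: GI50, concentration required for 50% inhibition of growth.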 Active and inactive are the calls of the source. No stated cut-off is given here; in the data, active = GI50 up to about 1.1 µM and inactive = higher.

What was measured:
Experiment in all cases: NCI anticancer screen, dose series, 48 h
[1] = system: 786-0
[2] = system: A549
[3] = system: ACHN
[4] = system: CAKI-1
[5] = system: CCRF-CEM
[6] = system: COLO 205
[7] = system: DLD-1
[8] = system: DMS-273
[9] = system: EKVX
[10] = system: HCC 2998
[11] = system: HCT-116
[12] = system: HCT-15
[13] = system: HL-60
[14] = system: HOP-18
[15] = system: HOP-62
[16] = system: HT-29
[17] = system: IGROV-1
[18] = system: K562
[19] = system: KM-20L2
[20] = system: KM12
[21] = system: LOX IMVI
[22] = system: LXFL 529
[23] = system: M14
[24] = system: M19-MEL
[25] = system: MOLT-4
[26] = system: Malme-3M
[27] = system: NCI-H226
[28] = system: NCI-H23
[29] = system: NCI-H460
[30] = system: NCI-H522
[31] = system: OVCAR-3
[32] = system: OVCAR-4
[33] = system: OVCAR-5
[34] = system: OVCAR-8
[35] = system: RPMI-8226
[36] = system: RXF 393
[37] = system: SF-268
[38] = system: SF-295
[39] = system: SK-MEL-28
[40] = system: SK-MEL-2
[41] = system: SK-MEL-5
[42] = system: SK-OV-3
[43] = system: SN12C
[44] = system: SNB-19
[45] = system: SNB-75
[46] = system: SNB-78
[47] = system: SR
[48] = system: SW-620
[49] = system: TK-10
[50] = system: U-251
[51] = system: UACC-257
[52] = system: UACC-62
[53] = system: UO-31
[54] = system: XF498

Q: `O=C1C(Cl)C(c2cc(Br)cc(Br)c2O)N1n1cnc2ccccc2c1=O` (centres undefined) was tested. Which GI50 [1] did it give?
A: 26.2 µM (inactive)

Q: And the GI50 [2]?
A: 65.9 µM (inactive)

Q: And the GI50 [3]?
A: 28.2 µM (inactive)

Q: What about the GI50 [4] of the same molecule?
A: 17.7 µM (inactive)

Q: And the GI50 [5]?
A: 9.29 µM (inactive)

Q: What about the GI50 [6] of the same molecule?
A: 29.2 µM (inactive)

Q: What about the GI50 [7] of the same molecule?
A: 8.87 µM (inactive)

Q: What about the GI50 [8] of the same molecule?
A: 29.4 µM (inactive)

Q: And the GI50 [9]?
A: 25.1 µM (inactive)

Q: What about the GI50 [10] of the same molecule?
A: 30.2 µM (inactive)

Q: And the GI50 [11]?
A: 18.9 µM (inactive)

Q: And the GI50 [12]?
A: 20.3 µM

Q: What about the GI50 [13] of the same molecule?
A: 16.8 µM (inactive)

Q: And the GI50 [14]?
A: 24.5 µM (inactive)

Q: What about the GI50 [15] of the same molecule?
A: 24.3 µM (inactive)

Q: And the GI50 [16]?
A: 36.1 µM (inactive)

Q: And the GI50 [17]?
A: 23.4 µM (inactive)

Q: What about the GI50 [18] of the same molecule?
A: 26.2 µM (inactive)

Q: And the GI50 [19]?
A: 32.5 µM (inactive)

Q: And the GI50 [20]?
A: 25.1 µM (inactive)

Q: And the GI50 [21]?
A: 14.1 µM (inactive)

Q: What about the GI50 [22] of the same molecule?
A: 21 µM (inactive)

Q: And the GI50 [23]?
A: 18.3 µM (inactive)

Q: What about the GI50 [24] of the same molecule?
A: 16.7 µM (inactive)

Q: And the GI50 [25]?
A: 7.46 µM (inactive)

Q: What about the GI50 [26] of the same molecule?
A: 19 µM (inactive)

Q: And the GI50 [27]?
A: 21.9 µM (inactive)

Q: And the GI50 [28]?
A: 23.8 µM (inactive)

Q: And the GI50 [29]?
A: 12.6 µM (inactive)

Q: And the GI50 [30]?
A: 19 µM (inactive)

Q: What about the GI50 [31] of the same molecule?
A: 22.3 µM (inactive)

Q: What about the GI50 [32] of the same molecule?
A: 9.55 µM (inactive)

Q: And the GI50 [33]?
A: 19.4 µM (inactive)

Q: And the GI50 [34]?
A: 24.7 µM (inactive)

Q: And the GI50 [35]?
A: 12.6 µM (inactive)

Q: And the GI50 [36]?
A: 21 µM (inactive)

Q: And the GI50 [37]?
A: 10.7 µM (inactive)

Q: And the GI50 [38]?
A: 6.76 µM (inactive)

Q: What about the GI50 [39] of the same molecule?
A: 19.6 µM (inactive)

Q: And the GI50 [40]?
A: 21.1 µM (inactive)

Q: What about the GI50 [41] of the same molecule?
A: 18.8 µM (inactive)

Q: And the GI50 [42]?
A: 13.6 µM (inactive)

Q: And the GI50 [43]?
A: 27.5 µM (inactive)

Q: What about the GI50 [44] of the same molecule?
A: 30.3 µM (inactive)

Q: What about the GI50 [45] of the same molecule?
A: 25.3 µM (inactive)

Q: What about the GI50 [46] of the same molecule?
A: 20.7 µM (inactive)

Q: What about the GI50 [47] of the same molecule?
A: 7.76 µM (inactive)

Q: What about the GI50 [48] of the same molecule?
A: 35.8 µM (inactive)

Q: What about the GI50 [49] of the same molecule?
A: 46.5 µM (inactive)

Q: And the GI50 [50]?
A: 6.35 µM (inactive)

Q: And the GI50 [51]?
A: 18.7 µM (inactive)

Q: And the GI50 [52]?
A: 19.2 µM (inactive)

Q: And the GI50 [53]?
A: 20.7 µM (inactive)

Q: And the GI50 [54]?
A: 23.3 µM (inactive)
